Measurements published in PMC2637922, “Active-Site Inhibitors of mTOR Target Rapamycin-Resistant Outputs of mTORC1 and mTORC2” (PLoS Biology, 2009).

How the values were obtained:
[1] = tested on: Akt substrates GSK3α/β, TSC2, and FoxO1/O3a in L6 myotubes; assay: Akt substrate phosphorylation in L6 myotubes (Western blot); assay type: cell-based; conditions: for phosphorylation of Akt and its substrates: insulin
[2] = tested on: Akt phosphorylation in SIN1−/− MEFs; assay: Akt phosphorylation in primary SIN1−/− MEFs (Western blot); assay type: cell-based, mouse; conditions: insulin, PIK-90 625 nM, BX-795 10 μM
[3] = tested on: S6K, S6 and 4EBP1 phosphorylation in L6 myotubes; assay: mTORC1 substrate phosphorylation in L6 myotubes (Western blot); conditions: Figure S3
PKC-beta = PKC-beta (Homo sapiens, UniProt P05771); conditions: in vitro, purified protein
Protocol: (§1) Phosphorylation of histone H1 (4 μM) by PKC was assayed in a buffer containing 200 ng/ml recombinant kinase, 25 mM HEPES pH 7.5, 10 mM MgCl2, 5 mM ß-glycerol phosphate, 0.05 mg/ml phosphatidylserine, 0.03% Triton X-100, 0.5 mg/ml BSA, 2.5 mM DTT, 100 μM CaCl2, 1 μM PMA, 10 μM ATP, and 15 μCi/ml of γ-^32P-ATP. Inhibitors were tested in a four-fold dilution series from 10 μM to 600 pM, and four measurements were made at each concentration. The kinase reaction was terminated by spotting onto nitrocellulose, which was washed 5 times with 1 M NaCl/1% phosphoric acid. The radioactivity remaining on the nitrocellulose sheet was quantified by phosphorimaging, and IC50 values were determined by fitting the data to a sigmoidal dose-response curve using the Prism software package.

PKCβI = PKCβI (Homo sapiens, UniProt P05771); assay: biochemical
Protocol: as §1

PDK1 = target: T1, PDK1 (Homo sapiens, UniProt O15530); assay: biochemical
T1 sequence (O15530 1-556): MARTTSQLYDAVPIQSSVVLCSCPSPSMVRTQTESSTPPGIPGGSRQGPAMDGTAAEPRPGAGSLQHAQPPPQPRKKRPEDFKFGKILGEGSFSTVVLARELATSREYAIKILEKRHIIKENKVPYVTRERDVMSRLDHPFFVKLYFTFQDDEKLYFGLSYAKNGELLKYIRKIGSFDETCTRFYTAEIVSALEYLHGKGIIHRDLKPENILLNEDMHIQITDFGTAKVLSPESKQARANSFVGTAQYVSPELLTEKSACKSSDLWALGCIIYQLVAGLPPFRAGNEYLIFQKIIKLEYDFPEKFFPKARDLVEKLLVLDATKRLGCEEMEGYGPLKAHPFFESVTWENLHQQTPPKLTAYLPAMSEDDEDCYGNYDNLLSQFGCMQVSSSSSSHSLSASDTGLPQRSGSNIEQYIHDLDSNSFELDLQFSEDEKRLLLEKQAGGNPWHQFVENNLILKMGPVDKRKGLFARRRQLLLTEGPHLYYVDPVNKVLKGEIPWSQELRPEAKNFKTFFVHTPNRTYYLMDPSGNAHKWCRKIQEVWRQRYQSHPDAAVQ

PKCβII = PKCβII (Homo sapiens, UniProt P05771); assay: biochemical
Protocol: as §1

[4] = tested on: new protein synthesis in primary MEFs; assay: 35S labeling of new protein synthesis; assay type: cell-based, mouse; conditions: overnight
Protocol: Primary MEFs grown to 70% confluence in six-well plates were incubated overnight in either 10% Serum (Steady State), kinase inhibitors in 10% serum, or 0.1% serum (starved). Cells were then washed once with DMEM lacking cysteine and methionine (DMEM-noS), and the medium was replaced with DMEM-noS including dialyzed serum and kinase inhibitors as indicated. After incubation for 1 h, 50 μCi of Expre^35S^35S (NEN) was added to each well and the cells were labeled for 4 h. Cells were washed once with ice-cold PBS, and lysed as described above for Western blotting. Following separation by SDS-PAGE, and transfer to nitrocellulose, ^35S-labeled proteins were visualized by autoradiography with film. For quantitation, the membrane was exposed to a phosphorimager screen and the resulting image was quantified in ImageJ. Differences in ^35S incorporation were analyzed for statistical significance by one-way ANOVA with Tukey's post test using the Prism software package.

[5] = tested on: pT308 of S473A Akt in HEK293 cells; assay type: cell-based; conditions: HEK293, insulin, 2.5 μM PP242
[6] = tested on: Akt, S6 and 4EBP1 phosphorylation in fat, skeletal muscle, and liver; assay: In vivo drug treatment and Western blotting of insulin signaling; design: species or system C57BL/6 mice; conditions: mice; for S6 phosphorylation, all tissues examined / phosphorylation of 4EBP1 on T36/45 and S65, all tissues examined: rapamycin 5 mg/kg or PP242 20 mg/kg IP
Protocol: Drugs were prepared in 100 μl of vehicle containing 20% DMSO, 40% PEG-400, and 40% saline. Six-wk-old male C57BL/6 mice were fasted overnight prior to drug treatment. […] 15 min after the insulin injection, the mice were killed by CO2 asphyxiation followed by cervical dislocation. Tissues were harvested and frozen on liquid nitrogen in 200 μl of cap lysis buffer. The frozen tissue was thawed on ice, manually disrupted with a mortar and pestle, and then further processed with a micro tissue-homogenizer (Fisher PowerGen 125 with Omni-Tip probe). Protein concentration of the cleared lysate was measured by Bradford assay and 5–10 μg of protein was analyzed by Western blot as described above.

[7] = tested on: cap-dependent and IRES-dependent translation in primary MEFs; assay: Bicistronic reporter assay; assay type: cell-based, mouse; conditions: overnight, 10% serum
Protocol: Primary MEFs were transfected with a bicistronic reporter [54] containing a viral IRES using Lipofectamine 2000 according to the manufacturers protocol. At 2 d post transfection, cells were treated overnight with compounds as indicated or starved of serum. The next day, Renilla and Firefly luciferase activity were measured using the Dual-Luciferase kit (Promega). Differences in the ratio of Renilla to Firefly luciferase signals were analyzed for statistical significance by one-way ANOVA with Tukey's post test using the Prism software package.

primary wild-type MEFs = assay: Cell proliferation assay (resazurin), wild-type MEFs; assay type: cell-based, mouse; conditions: cultured 3 d, resazurin fluorescence
Protocol: (§2) Wild-type and SIN1^−/− MEFs were plated in 96-well plates at approximately 30% confluence and left overnight to adhere.

[8] = tested on: Akt phosphorylation in wild-type MEFs; assay: Akt phosphorylation in primary wild-type MEFs (Western blot); assay type: cell-based, mouse; conditions: long-term rapamycin (100 nM, 24 h)
SIN1−/− MEFs = assay: Cell proliferation assay (resazurin), SIN1−/− MEFs; conditions: compared with PP242
Protocol: as §2

[9] = tested on: 4EBP1 bound to eIF4E in L6 myotube lysates; assay: Cap pull-down assay (m7GTP beads); assay type: cell-based
Protocol: L6 myotubes from one well of a six-well plate were lysed in 300 μl of cap lysis buffer as described above. 50 μl of detergent-free cap lysis buffer and 20 μl of pre-washed cap beads were added to 150 μl of cleared lysate and incubated at 4 °C overnight with tumbling. The beads were washed twice with 400 μl of cap wash buffer (cap lysis buffer with 0.5% NP-40 instead of 1% NP-40) and twice with 500 μl of PBS. The beads were boiled in SDS-PAGE sample buffer and the retained proteins analyzed by Western blot. All antibodies were from Cell Signaling Technologies except for the anti-eIF4E antibody, which was from BD Biosciences.

Sequence of PKC-beta (P05771 2-621 limits assumed): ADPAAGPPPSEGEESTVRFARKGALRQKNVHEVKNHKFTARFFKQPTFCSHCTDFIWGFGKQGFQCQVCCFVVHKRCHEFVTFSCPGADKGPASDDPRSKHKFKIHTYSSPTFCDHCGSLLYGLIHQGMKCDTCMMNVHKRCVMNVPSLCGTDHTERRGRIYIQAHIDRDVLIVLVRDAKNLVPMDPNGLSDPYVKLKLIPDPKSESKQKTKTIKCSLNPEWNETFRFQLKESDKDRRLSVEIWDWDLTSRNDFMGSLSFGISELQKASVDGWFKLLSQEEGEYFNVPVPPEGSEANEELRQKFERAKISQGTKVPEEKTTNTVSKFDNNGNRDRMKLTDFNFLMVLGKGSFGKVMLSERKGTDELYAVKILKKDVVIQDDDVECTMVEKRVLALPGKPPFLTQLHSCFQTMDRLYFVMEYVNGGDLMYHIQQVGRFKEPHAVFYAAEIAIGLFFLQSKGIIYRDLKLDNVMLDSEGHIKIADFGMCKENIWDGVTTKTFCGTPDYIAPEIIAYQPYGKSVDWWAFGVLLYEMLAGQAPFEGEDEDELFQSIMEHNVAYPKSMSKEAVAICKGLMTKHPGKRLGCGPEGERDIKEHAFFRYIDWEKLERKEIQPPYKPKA
Sequence of PKCβI (P05771 whole entry): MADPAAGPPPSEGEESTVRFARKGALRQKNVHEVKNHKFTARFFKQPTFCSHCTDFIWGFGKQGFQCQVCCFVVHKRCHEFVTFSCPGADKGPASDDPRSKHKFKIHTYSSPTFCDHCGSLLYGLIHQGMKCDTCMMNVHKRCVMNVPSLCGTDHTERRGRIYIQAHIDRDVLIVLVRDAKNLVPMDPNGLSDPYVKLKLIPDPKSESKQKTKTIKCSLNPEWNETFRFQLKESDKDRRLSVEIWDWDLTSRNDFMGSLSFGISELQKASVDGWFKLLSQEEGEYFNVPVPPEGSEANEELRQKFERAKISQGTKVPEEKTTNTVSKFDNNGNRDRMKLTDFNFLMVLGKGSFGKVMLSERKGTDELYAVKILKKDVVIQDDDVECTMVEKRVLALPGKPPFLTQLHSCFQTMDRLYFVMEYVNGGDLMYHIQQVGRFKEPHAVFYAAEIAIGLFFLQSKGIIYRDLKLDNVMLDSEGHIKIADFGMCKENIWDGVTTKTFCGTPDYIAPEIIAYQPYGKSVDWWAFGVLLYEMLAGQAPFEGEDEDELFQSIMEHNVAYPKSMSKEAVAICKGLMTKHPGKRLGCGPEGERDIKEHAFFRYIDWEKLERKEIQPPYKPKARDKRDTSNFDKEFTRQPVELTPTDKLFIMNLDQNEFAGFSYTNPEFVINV
Sequence of PKCβII (P05771 1-673 isoform P05771-2): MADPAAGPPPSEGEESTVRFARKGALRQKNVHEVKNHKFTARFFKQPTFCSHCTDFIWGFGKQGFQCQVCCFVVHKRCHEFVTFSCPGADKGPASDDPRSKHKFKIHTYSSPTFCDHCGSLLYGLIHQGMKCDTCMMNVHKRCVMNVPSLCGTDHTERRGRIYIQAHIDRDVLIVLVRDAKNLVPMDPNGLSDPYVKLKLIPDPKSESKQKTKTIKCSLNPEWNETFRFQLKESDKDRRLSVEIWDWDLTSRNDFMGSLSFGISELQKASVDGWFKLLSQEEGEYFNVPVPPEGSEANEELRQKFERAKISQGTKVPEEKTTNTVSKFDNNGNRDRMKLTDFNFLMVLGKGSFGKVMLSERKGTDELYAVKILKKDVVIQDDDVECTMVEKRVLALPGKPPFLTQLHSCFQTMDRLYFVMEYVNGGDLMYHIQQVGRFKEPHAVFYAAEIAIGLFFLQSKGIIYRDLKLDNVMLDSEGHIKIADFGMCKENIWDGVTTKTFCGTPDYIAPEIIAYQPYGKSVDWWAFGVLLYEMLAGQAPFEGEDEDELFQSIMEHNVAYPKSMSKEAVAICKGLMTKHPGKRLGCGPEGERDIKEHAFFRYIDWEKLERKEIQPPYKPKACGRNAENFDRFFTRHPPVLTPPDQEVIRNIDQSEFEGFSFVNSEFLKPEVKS

O=c1[nH]c2ccccc2n1C1CCN(Cc2ccc(-c3nc4cc5nc[nH]c5cc4nc3-c3ccccc3)cc2)CC1 [Akti-1/2]
FoxO1/O3a phosphorylation at T24/T32 [1]: inhibits | phosphorylation of Akt and its substrates [1]: completely inhibited

O=C(NCCCNc1nc(Nc2cccc(NC(=O)N3CCCC3)c2)ncc1I)c1cccs1 [BX-795]
phosphorylation of Akt T308 [2]: blocked

COc1ccc2c(c1OC)N=C(NC(=O)c1cccnc1)N1CCN=C21 [PIK-90]
phosphorylation of 4EBP1 at T36/45 [3]: did not reduce | phosphorylation of Akt T308 [2]: blocked | phosphorylation of Akt and its substrates [1]: completely inhibited

CC(C)n1nc(-c2cccc(C(=O)NC3=NCCS3)c2)c2c(N)ncnc21 [PP30]
activity against PKC-beta (PKC-beta): no activity | IC50 (PKCβI): > 10 µM | IC50 (PDK1): > 10 µM | IC50 (PKCβII): > 10 µM

CC(C)n1nc(-c2cc3cc(O)ccc3[nH]2)c2c(N)ncnc21 [PP242]
reduction of total protein synthesis [4]: about 30% | T308-P on S473A Akt [5]: not inhibited | phosphorylation of Akt at S473 and T308 in fat and liver ([6]; PP242 20 mg/kg IP, insulin): completely inhibit | phosphorylation of Akt in skeletal muscle ([6]; PP242 20 mg/kg IP, insulin): only partially able to inhibit | S6 phosphorylation, all tissues examined [6]: fully inhibited | phosphorylation of 4EBP1 on T36/45 and S65, all tissues examined [6]: effective at blocking | phosphorylation of Akt T308 [2]: no effect

CO[C@H]1C[C@@H]2CC[C@@H](C)[C@@](O)(O2)C(=O)C(=O)N2CCCC[C@H]2C(=O)O[C@H]([C@H](C)C[C@@H]2CC[C@@H](O)[C@H](OC)C2)CC(=O)[C@H](C)/C=C(\C)[C@@H](O)[C@@H](OC)C(=O)[C@H](C)C[C@H](C)/C=C/C=C/C=C/1C [rapamycin]
cap-dependent translation (renilla/firefly ratio) [7]: did not have a statistically significant effect | reduction of total protein synthesis [4]: does not have a significant effect | proliferation of primary MEFs (primary wild-type MEFs): inhibited growth to the same extent | Akt S473-P [8]: inhibited | Akt T308-P [8]: reduced | phosphorylation of Akt at S473 and T308, all tissues examined ([6]; acute rapamycin 5 mg/kg IP, insulin): activated | S6 phosphorylation, all tissues examined [6]: fully inhibited | phosphorylation of 4EBP1 on T36/45 and S65, all tissues examined [6]: did not block 4EBP1 phosphorylation as completely as PP242 | blocking cell proliferation of SIN1−/− MEFs (SIN1−/− MEFs): less effective at blocking cell proliferation than PP242 | insulin-stimulated release of 4EBP1 from eIF4E (retention on m7GTP beads) [9]: partial inhibition
